Paper PMC4911353, “Pharmacologic Inhibition of Host Phosphodiesterase-4 Improves Isoniazid-Mediated Clearance of Mycobacterium tuberculosis” (Frontiers in Immunology, 2016)

Test system: Mtb-infected mouse lungs
Experiment: Genome-wide lung transcriptome (microarray, IPA network/GO analysis) of Mtb-infected mice
Format: in vivo
[1] = Canonical IFN signaling pathway

CCOc1cc([C@@H](CS(C)(=O)=O)N2Cc3cccc(NC(=O)C4CC4)c3C2=O)ccc1OC [CC-11050, N-[2-[(1S)-1-(3-ethoxy-4-methoxyphenyl)-2-(methylsulfonyl)ethyl]-2,3-dihydro-3-oxo-1H-isoindol-4-yl]-(9Cl) cyclopropanecarboxamide]
1.241: TFPI expression (Lung inflammation network)
1.165: FCGRT expression (Lung inflammation network)
1.126: SFTPA1 expression (Lung inflammation network)
0: BAK expression [1] | BAX expression [1] | DRIP150 expression [1] | IFI35 expression [1] | IFIT3 expression [1] | IFNAR2 expression [1] | IFNG expression [1] | IRF1 expression [1] | IRF9 expression [1] | JAK2 expression [1] | OAS1 expression [1] | PIAS1 expression [1] | PSMB8 expression [1] | SOCS1 expression [1] | STAT1 expression [1] | STAT2 expression [1] | TAP1 expression [1] | TC-PTP expression [1] | TYK2 expression [1] | ACTB expression (IL17 interaction network) | CCL2 expression (IL17 interaction network) | CCL5 expression (IL17 interaction network) | CCL13 expression (IL17 interaction network) | CSF2 expression (IL17 interaction network) | EDIL3 expression (IL17 interaction network) | IFNG expression (IL17 interaction network) | IL1B expression (IL17 interaction network) | IL6 expression (IL17 interaction network) | IL10 expression (IL17 interaction network) | IL16 expression (IL17 interaction network) | IL17A expression (IL17 interaction network) | IL17D expression (IL17 interaction network) | LTA expression (IL17 interaction network) | MMP9 expression (IL17 interaction network) | NOS2 expression (IL17 interaction network) | PTGS2 expression (IL17 interaction network) | RGS13 expression (IL17 interaction network) | SELE expression (IL17 interaction network) | STAT3 expression (IL17 interaction network) | TIMP1 expression (IL17 interaction network) | TLR4 expression (IL17 interaction network) | TNF expression (IL17 interaction network) | TRAF3IP2 expression (IL17 interaction network) | TRAF6 expression (IL17 interaction network) | VWF expression (IL17 interaction network) | ABL1 expression (Lung inflammation network) | ACO2 expression (Lung inflammation network) | ACTB expression (Lung inflammation network) | ADORA2A expression (Lung inflammation network) | AGER expression (Lung inflammation network) | AGTR1 expression (Lung inflammation network) | AHR expression (Lung inflammation network) | ALDH2 expression (Lung inflammation network) | ANGPT1 expression (Lung inflammation network) | ANXA3 expression (Lung inflammation network) | ATF3 expression (Lung inflammation network) | BAX expression (Lung inflammation network) | BID expression (Lung inflammation network) | BSG expression (Lung inflammation network) | CASP1 expression (Lung inflammation network) | CAV1 expression (Lung inflammation network) | CBL expression (Lung inflammation network) | CCL2 expression (Lung inflammation network) | CCL5 expression (Lung inflammation network) | CCR4 expression (Lung inflammation network) | CCR5 expression (Lung inflammation network) | CD4 expression (Lung inflammation network) | CD14 expression (Lung inflammation network) | CD40LG expression (Lung inflammation network) | CD44 expression (Lung inflammation network) | CD86 expression (Lung inflammation network) | CD200 expression (Lung inflammation network) | CIITA expression (Lung inflammation network) | CSF2RB expression (Lung inflammation network) | CSF2 expression (Lung inflammation network) | CSK expression (Lung inflammation network) | CTLA4 expression (Lung inflammation network) | CTSS expression (Lung inflammation network) | CXCR3 expression (Lung inflammation network) | CYBB expression (Lung inflammation network) | CYLD expression (Lung inflammation network) | Ccl6 expression (Lung inflammation network) | Cd59a expression (Lung inflammation network) | Cxcl15 expression (Lung inflammation network) | EDNRA expression (Lung inflammation network) | EIF2C2 expression (Lung inflammation network) | F2RL1 expression (Lung inflammation network) | F10 expression (Lung inflammation network) | FASLG expression (Lung inflammation network) | FBN1 expression (Lung inflammation network) | FCGR2B expression (Lung inflammation network) | HMGCR expression (Lung inflammation network) | HRH1 expression (Lung inflammation network) | HTT expression (Lung inflammation network) | IFNG expression (Lung inflammation network) | IKBKB expression (Lung inflammation network) | IKBKE expression (Lung inflammation network) | IL1B expression (Lung inflammation network) | IL1R1 expression (Lung inflammation network) | IL2RG expression (Lung inflammation network) | IL4R expression (Lung inflammation network) | IL6 expression (Lung inflammation network) | IL10 expression (Lung inflammation network) | IL12B expression (Lung inflammation network) | IL15RA expression (Lung inflammation network) | IL16 expression (Lung inflammation network) | IL17RB expression (Lung inflammation network) | IL18 expression (Lung inflammation network) | ITGB6 expression (Lung inflammation network) | ITGBL1 expression (Lung inflammation network) | ITK expression (Lung inflammation network) | KIT expression (Lung inflammation network) | LAT expression (Lung inflammation network) | LCP2 expression (Lung inflammation network) | LGALS1 expression (Lung inflammation network) | LTA expression (Lung inflammation network) | MAP3K14 expression (Lung inflammation network) | MARK2 expression (Lung inflammation network) | MGAT5 expression (Lung inflammation network) | MKL2 expression (Lung inflammation network) | MMP9 expression (Lung inflammation network) | MMP14 expression (Lung inflammation network) | NCF1 expression (Lung inflammation network) | NEO1 expression (Lung inflammation network) | NFATC2 expression (Lung inflammation network) | NFKB1 expression (Lung inflammation network) | NLRP3 expression (Lung inflammation network) | NOD1 expression (Lung inflammation network) | NOD2 expression (Lung inflammation network) | NOS2 expression (Lung inflammation network) | NQO1 expression (Lung inflammation network) | NQO2 expression (Lung inflammation network) | NT5E expression (Lung inflammation network) | PDE5A expression (Lung inflammation network) | PDGFRA expression (Lung inflammation network) | PDGFRB expression (Lung inflammation network) | PLA2G4A expression (Lung inflammation network) | PLAU expression (Lung inflammation network) | PTAFR expression (Lung inflammation network) | PTGS2 expression (Lung inflammation network) | PTPN6 expression (Lung inflammation network) | PTPRC expression (Lung inflammation network) | RELB expression (Lung inflammation network) | S100A4 expression (Lung inflammation network) | SELE expression (Lung inflammation network) | SFTPD expression (Lung inflammation network) | SLC6A2 expression (Lung inflammation network) | SOCS1 expression (Lung inflammation network) | SPI1 expression (Lung inflammation network) | SPP1 expression (Lung inflammation network) | STAT1 expression (Lung inflammation network)
1.609: FOXO3 expression (Lung inflammation network)
1.12: PTEN expression (Lung inflammation network)
-1.115: IFNGRb expression [1] | IFNGR2 expression (Lung inflammation network)
1.322: HSPB8 expression (IL17 interaction network)
-1.343: E2F3 expression (Lung inflammation network)
47: Number of SDEGs affected by more than 1.5-folds (14 days of treatment (29 upregulated and 18 downregulated))
1.235: EDNRB expression (Lung inflammation network)
-1.187: LIF expression (Lung inflammation network)
-1.135: HMGB1 expression (IL17 interaction network)
-1.184: IL17F expression (IL17 interaction network)
1.149: ENTPD1 expression (IL17 interaction network) | ENTPD1 expression (Lung inflammation network)
1,277: Number of SDEGs relative to infected untreated animals (14 days of treatment, FDR 5%)
